The source of these data is ChEMBL document CHEMBL4130476, “4-Alkyliden-azetidinones modified with plant derived polyphenols: Antibacterial and antioxidant properties” (2017).

Values after ≈ are worked out from the molar mass of the structure shown. Where only a bound is given, the exact number is not on record here.

Format in all cases: functional
In one assay the test system is Enterococcus faecium. The assay can be described thus: Antibacterial activity against linezolid and vancomycin-resistant Enterococcus faecium VRE2 assessed as inhibition of bacterial growth incubated for 18 to 24 hrs by broth microdilution method. In general terms: In broth dilution the organism is exposed to a series of concentrations in liquid medium.
Assay [1] relates to Staphylococcus aureus. The assay can be described thus: Antibacterial activity against methicillin-susceptible Staphylococcus aureus 69856 assessed as inhibition of bacterial growth incubated for 18 to 24 hrs by broth microdilution method.
The nature of assay [2]: Antioxidant activity assessed as DPPH scavenging activity by measuring mmol of Trolox equivalent antioxidant capacity incubated for 40 mins.
The test system of assay [3] is Staphylococcus aureus. The assay can be described thus: Antibacterial activity against methicillin-resistant Staphylococcus aureus 44674 assessed as inhibition of bacterial growth incubated for 18 to 24 hrs by broth microdilution method.
The test system of assay [4] is Staphylococcus aureus. The assay can be described thus: Antibacterial activity against Staphylococcus aureus ATCC 29213 assessed as inhibition of bacterial growth incubated for 18 to 24 hrs by broth microdilution method.
The test system of assay [5] is Staphylococcus epidermidis. The assay can be described thus: Antibacterial activity against methicillin-susceptible Staphylococcus epidermidis 3226 assessed as inhibition of bacterial growth incubated for 18 to 24 hrs by broth microdilution method.
The subject of the next assay is Staphylococcus hominis. Briefly: Antibacterial activity against linezolid and methicillin-resistant Staphylococcus hominis alpha26 assessed as inhibition of bacterial growth incubated for 18 to 24 hrs by broth microdilution method.
The test system of assay [6] is Staphylococcus aureus. Briefly: Antibacterial activity against methicillin-susceptible Staphylococcus aureus 39249 assessed as inhibition of bacterial growth incubated for 18 to 24 hrs by broth microdilution method.
Assay [7] deals with Enterococcus faecalis. Briefly: Antibacterial activity against Enterococcus faecalis ATCC 29212 assessed as inhibition of bacterial growth incubated for 18 to 24 hrs by broth microdilution method.
For assay [8], the system named is Staphylococcus aureus. The assay can be described thus: Antibacterial activity against linezolid and methicillin-resistant Staphylococcus aureus SAU-1 assessed as inhibition of bacterial growth incubated for 18 to 24 hrs by broth microdilution method.
The test system of assay [9] is Staphylococcus epidermidis. Briefly: Antibacterial activity against linezolid and methicillin-resistant Staphylococcus epidermidis G1027 assessed as inhibition of bacterial growth incubated for 18 to 24 hrs by broth microdilution method.
Assay [10] relates to Enterococcus faecalis. Briefly: Antibacterial activity against linezolid and […] 4150 assessed as inhibition of bacterial growth incubated for 18 to 24 hrs by broth microdilution method.
Assay [11] can be described thus: Antioxidant activity assessed as ABTS scavenging activity by measuring mmol of Trolox equivalent antioxidant capacity incubated for 6 mins.

By MIC is commonly meant the lowest concentration that inhibits growth of the organism. With `C[C@@H](OC(=O)c1ccc(O)c(O)c1)[C@H]1C(=O)N/C1=C\C(=O)OCc1ccccc1`, the MIC is 128 µg/mL (≈ 322 µM) with Enterococcus faecium; 4 µg/mL (≈ 10.1 µM) in the assay on Staphylococcus aureus [1]; 8 µg/mL (≈ 20.1 µM) with Staphylococcus aureus [3]; 16 µg/mL (≈ 40.3 µM) in the assay on Staphylococcus aureus [4]; 16 µg/mL (≈ 40.3 µM) in assay [5]; > 128 µg/mL in the assay with Staphylococcus hominis. Besides, the minimal inhibitory concentration (MIC) in the assay with Staphylococcus aureus [6] was 4 µg/mL (≈ 10.1 µM); in the assay on Enterococcus faecalis [7], 128 µg/mL (≈ 322 µM); with Staphylococcus aureus [8], 16 µg/mL (≈ 40.3 µM); in assay [9], 16 µg/mL (≈ 40.3 µM); in the assay with Enterococcus faecalis [10], 128 µg/mL (≈ 322 µM). The Activity in [2] amounted to 2.59 mmolequiv; in assay [11] it was 1.3 mmolequiv.
For the compound `C[C@@H](OC(=O)c1ccc(O)cc1)[C@H]1C(=O)N/C1=C\C(=O)OCc1ccccc1`, the MIC in the assay with Enterococcus faecium was > 128 µg/mL; in the assay with Staphylococcus aureus [1], > 128 µg/mL; in the assay on Staphylococcus aureus [3], > 128 µg/mL; with Staphylococcus aureus [4] it was 2 µg/mL (≈ 5.24 µM); in [5], > 128 µg/mL; in the assay with Staphylococcus hominis, 16 µg/mL (≈ 42 µM). Further, the MIC was > 128 µg/mL with Staphylococcus aureus [6]; > 128 µg/mL in the assay with Enterococcus faecalis [7]; 2 µg/mL (≈ 5.24 µM) in the assay with Staphylococcus aureus [8]; > 128 µg/mL in assay [9]; > 128 µg/mL in the assay on Enterococcus faecalis [10]. Besides, the Activity in assay [2] is 0.007 mmolequiv; in assay [11], 0.01 mmolequiv.
Regarding `C[C@@H](OC(=O)/C=C/c1ccc(O)cc1)[C@H]1C(=O)N/C1=C\C(=O)OCc1ccccc1`, the MIC with Enterococcus faecium is > 128 µg/mL; with Staphylococcus aureus [1], 8 µg/mL (≈ 19.6 µM); in the assay on Staphylococcus aureus [3], 4 µg/mL (≈ 9.82 µM); in the assay on Staphylococcus aureus [4] it was 8 µg/mL (≈ 19.6 µM); in assay [5] it was 8 µg/mL (≈ 19.6 µM); with Staphylococcus hominis it was 4 µg/mL (≈ 9.82 µM). In addition, the MIC with Staphylococcus aureus [6] was 4 µg/mL (≈ 9.82 µM); in the assay with Enterococcus faecalis [7] it was > 128 µg/mL; in the assay on Staphylococcus aureus [8], 4 µg/mL (≈ 9.82 µM); in assay [9] it was 8 µg/mL (≈ 19.6 µM); in the assay with Enterococcus faecalis [10], 64 µg/mL (≈ 157 µM). The Activity was found to be 0.003 mmolequiv in assay [2] and 0.053 mmolequiv in [11].
With `CO/N=C(\C(=O)N[C@@H]1C(=O)N2C(C(=O)O)=C(COC(N)=O)CS[C@H]12)c1ccco1` [CEFUROXIME], the MIC in the assay with Enterococcus faecium is > 128 µg/mL; in the assay with Staphylococcus aureus [1], 1 µg/mL (≈ 2.36 µM); in the assay on Staphylococcus aureus [3] it was 8 µg/mL (≈ 18.9 µM); in the assay with Staphylococcus aureus [4], 2 µg/mL (≈ 4.71 µM); in assay [5] it was 0.5 µg/mL (≈ 1.18 µM); in the assay with Staphylococcus hominis, 8 µg/mL (≈ 18.9 µM). The MIC with Staphylococcus aureus [6] was 2 µg/mL (≈ 4.71 µM); in the assay on Enterococcus faecalis [7] it was > 128 µg/mL; in the assay with Staphylococcus aureus [8], > 128 µg/mL; in assay [9], 32 µg/mL (≈ 75.4 µM); in the assay on Enterococcus faecalis [10], > 128 µg/mL.
Turning to `C[C@@H](OC(=O)/C=C/c1ccc2c(c1)OCO2)[C@H]1C(=O)N/C1=C\C(=O)OCc1ccccc1`, the MIC with Enterococcus faecium is > 128 µg/mL; in the assay with Staphylococcus aureus [1], > 128 µg/mL; in the assay on Staphylococcus aureus [3], > 128 µg/mL; with Staphylococcus aureus [4], > 128 µg/mL; in assay [5], > 128 µg/mL; in the assay on Staphylococcus hominis, 128 µg/mL (≈ 294 µM). The MIC (with Staphylococcus aureus [6]; in the assay with Enterococcus faecalis [7]; with Staphylococcus aureus [8]; in [9]; in the assay with Enterococcus faecalis [10]) was > 128 µg/mL throughout.
With `COc1cc(/C=C/C(=O)O[C@H](C)[C@H]2C(=O)N/C2=C\C(=O)OCc2ccccc2)cc(OC)c1O`, the MIC with Enterococcus faecium was > 128 µg/mL; in the assay with Staphylococcus aureus [1] it was > 128 µg/mL; with Staphylococcus aureus [3] it was 8 µg/mL (≈ 17.1 µM); with Staphylococcus aureus [4], > 128 µg/mL; in assay [5], > 128 µg/mL; in the assay with Staphylococcus hominis, 4 µg/mL (≈ 8.56 µM). The MIC in the assay with Staphylococcus aureus [6] was 8 µg/mL (≈ 17.1 µM); in the assay with Enterococcus faecalis [7], > 128 µg/mL; with Staphylococcus aureus [8] it was 8 µg/mL (≈ 17.1 µM); in [9], > 128 µg/mL; in the assay on Enterococcus faecalis [10], > 128 µg/mL. The Activity in assay [2] came to 0.191 mmolequiv; in assay [11], 0.232 mmolequiv.
Consider `C[C@@H](OC(=O)/C=C/c1ccc(O)c(O)c1)[C@H]1C(=O)N/C1=C\C(=O)OCc1ccccc1`, for which the MIC (in the assay on Enterococcus faecium; in the assay with Staphylococcus aureus [1]; with Staphylococcus aureus [3]; in the assay on Staphylococcus aureus [4]; in [5]; with Staphylococcus hominis) was > 128 µg/mL in each case. Moreover, the MIC (in the assay on Staphylococcus aureus [6]; in the assay with Enterococcus faecalis [7]; with Staphylococcus aureus [8]; in assay [9]; in the assay on Enterococcus faecalis [10]) was > 128 µg/mL each time. The Activity was 1.67 mmolequiv in assay [2] and 1.03 mmolequiv in assay [11].
Regarding `C[C@@H](OC(=O)/C=C/c1ccccc1O)[C@H]1C(=O)N/C1=C\C(=O)OCc1ccccc1`, the MIC in the assay on Enterococcus faecium was > 128 µg/mL; with Staphylococcus aureus [1] it was > 128 µg/mL; with Staphylococcus aureus [3], > 128 µg/mL; with Staphylococcus aureus [4] it was 2 µg/mL (≈ 4.91 µM); in assay [5], > 128 µg/mL; with Staphylococcus hominis it was 2 µg/mL (≈ 4.91 µM). For the same compound, the MIC in the assay with Staphylococcus aureus [6] was > 128 µg/mL; in the assay on Enterococcus faecalis [7], > 128 µg/mL; with Staphylococcus aureus [8], 1 µg/mL (≈ 2.45 µM); in assay [9] it was > 128 µg/mL; in the assay on Enterococcus faecalis [10], > 128 µg/mL. Also, the Activity in [2] was determined as 0.002 mmolequiv; in [11] it was 0.143 mmolequiv.
Turning to `COc1cc(/C=C/C(=O)O[C@H](C)[C@H]2C(=O)N/C2=C\C(=O)OCc2ccccc2)ccc1O`, the minimum inhibitory concentration (MIC) in the assay with Enterococcus faecium was > 128 µg/mL; in the assay with Staphylococcus aureus [1] it was 8 µg/mL (≈ 18.3 µM); in the assay on Staphylococcus aureus [3], 4 µg/mL (≈ 9.14 µM); with Staphylococcus aureus [4], 4 µg/mL (≈ 9.14 µM); in [5], 8 µg/mL (≈ 18.3 µM); in the assay on Staphylococcus hominis it was 4 µg/mL (≈ 9.14 µM). The minimum inhibitory concentration (MIC) in the assay with Staphylococcus aureus [6] is 8 µg/mL (≈ 18.3 µM); in the assay on Enterococcus faecalis [7], > 128 µg/mL; in the assay on Staphylococcus aureus [8], 4 µg/mL (≈ 9.14 µM); in assay [9], 4 µg/mL (≈ 9.14 µM); in the assay with Enterococcus faecalis [10] it was 8 µg/mL (≈ 18.3 µM). Further, the Activity in assay [2] stood at 0.142 mmolequiv; in assay [11], 0.284 mmolequiv.
Turning to `C[C@@H](OC(=O)c1ccc2c(c1)OCO2)[C@H]1C(=O)N/C1=C\C(=O)OCc1ccccc1`, the MIC with Enterococcus faecium is > 128 µg/mL; in the assay with Staphylococcus aureus [1] it was 8 µg/mL (≈ 19.5 µM); with Staphylococcus aureus [3], 4 µg/mL (≈ 9.77 µM); with Staphylococcus aureus [4] it was 2 µg/mL (≈ 4.89 µM); in assay [5] it was 8 µg/mL (≈ 19.5 µM); in the assay with Staphylococcus hominis, 4 µg/mL (≈ 9.77 µM). Also, the MIC with Staphylococcus aureus [6] is 4 µg/mL (≈ 9.77 µM); with Enterococcus faecalis [7], > 128 µg/mL; in the assay with Staphylococcus aureus [8], 2 µg/mL (≈ 4.89 µM); in assay [9], 4 µg/mL (≈ 9.77 µM); in the assay on Enterococcus faecalis [10], > 128 µg/mL. Moreover, the Activity in assay [2] is 0.012 mmolequiv.
For the compound `C[C@@H](OC(=O)c1cccc2c1OCO2)[C@H]1C(=O)N/C1=C\C(=O)OCc1ccccc1`, the MIC in the assay on Enterococcus faecium is > 128 µg/mL; in the assay with Staphylococcus aureus [1], > 128 µg/mL; in the assay on Staphylococcus aureus [3], > 128 µg/mL; in the assay with Staphylococcus aureus [4], 16 µg/mL (≈ 39.1 µM); in assay [5], > 128 µg/mL; in the assay on Staphylococcus hominis it was 8 µg/mL (≈ 19.5 µM). Further, the MIC in the assay on Staphylococcus aureus [6] is > 128 µg/mL; in the assay on Enterococcus faecalis [7] it was > 128 µg/mL; in the assay with Staphylococcus aureus [8] it was 2 µg/mL (≈ 4.89 µM); in assay [9], > 128 µg/mL; with Enterococcus faecalis [10], > 128 µg/mL.
In the case of `CN[C@H](CC(C)C)C(=O)N[C@H]1C(=O)N[C@@H](CC(N)=O)C(=O)N[C@H]2C(=O)N[C@H]3C(=O)N[C@H](C(=O)N[C@H](C(=O)O)c4cc(O)cc(O)c4-c4cc3ccc4O)[C@H](O)c3ccc(c(Cl)c3)Oc3cc2cc(c3O[C@@H]2O[C@H](CO)[C@@H](O)[C@H](O)[C@H]2O[C@H]2C[C@](C)(N)[C@H](O)[C@H](C)O2)Oc2ccc(cc2Cl)[C@H]1O` [VANCOMYCIN], the MIC in the assay on Enterococcus faecium was > 128 µg/mL; in the assay with Staphylococcus hominis, 1 µg/mL (≈ 0.69 µM); in the assay with Enterococcus faecalis [7] it was 2 µg/mL (≈ 1.38 µM); in the assay on Enterococcus faecalis [10], 0.25 µg/mL (≈ 0.173 µM).
